Measurements reported in patent publication US10100019B2.
Like-named read-outs stand apart in the source and are kept apart here.

Columns and labels:
H2228 cells [1] = details: human, 3 days
H2228 cells [2] = assay: cells; details: Homo sapiens, NCI-H2228, 72 h, read-out: Cytotoxicity H2228 (GI50 μM), H2228 cells, three days, SRB
H3122 cells = assay: Cytotoxicity in non-small cell lung cancer cell line H3122 (SRB); assay type: cell-based, human; details: Homo sapiens, NCI-H3122, 72 h, H3122 cells, three days, SRB

In the case of `COc1ccc(CCN(CCO)CCO)cc1Nc1ncc(Cl)c(Nc2ccccc2S(=O)(=O)C(C)C)n1` [Example 39, 2,2′-(3-(5-chloro-4-(2-(isopropylsulfonyl)phenylamino)pyrimidine-2-ylamino)-4-methoxyphenethylazeindiyl)diethanol], the GI50 (H2228 cells [1]) is reported as 870 nM, the GI50 (H2228 cells [2]) is reported as at most 1 µM and the GI50 (H3122 cells) is reported as 0.93 µM.
